Experimental data from the supplement of paper PMC10307832.

Key:
Assay in all cases: relative viability (nuclei count vs DMSO), 5 days (fraction); higher = more cells survive
[1] = compound: CC(C)N(CCCNC(=O)Nc1ccc(C(C)(C)C)cc1)C[C@H]1O[C@@H](n2ccc3c(N)ncnc32)[C@H](O)[C@@H]1O + O=C(c1cc(Cc2n[nH]c(=O)c3ccccc23)ccc1F)N1CCN(C(=O)C2CC2)CC1 [Olaparib] (partner 8 µM)
Procedure, shortened: (§1)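 Relative viability is defined as nuclei in treated wells over nuclei in vehicle wells. Duplicate plates were run and medians reported. Lung cancer cell lines in 1536-well plates were dosed by pin tool one day after seeding, with one drug or with a fixed anchor-drug dose plus five library-drug doses (not always all listed) in √10 steps, and nuclei were counted after 5 days.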

Shikonin + Linsitinib = compound: CC(C)=CC[C@@H](O)C1=CC(=O)c2c(O)ccc(O)c2C1=O [Shikonin] + C[C@]1(O)C[C@@H](c2nc(-c3ccc4ccc(-c5ccccc5)nc4c3)c3c(N)nccn32)C1 [Linsitinib] (partner 1 µM)
Procedure, shortened: as §1

[2] = compound: CC(C)N(CCCNC(=O)Nc1ccc(C(C)(C)C)cc1)C[C@H]1O[C@@H](n2ccc3c(N)ncnc32)[C@H](O)[C@@H]1O + C[C@@H](Oc1cc(-c2cnn(C3CCNCC3)c2)cnc1N)c1c(Cl)ccc(F)c1Cl [Crizotinib] (partner 1 µM)
Procedure, shortened: as §1

[3] = compound: CC(C)N(CCCNC(=O)Nc1ccc(C(C)(C)C)cc1)C[C@H]1O[C@@H](n2ccc3c(N)ncnc32)[C@H](O)[C@@H]1O + Nc1nc2[nH]cc(CCc3ccc(C(=O)N[C@@H](CCC(=O)O)C(=O)O)cc3)c2c(=O)[nH]1 [Pemetrexed] (partner 0.2 µM)
Procedure, shortened: as §1

Row | Cell Line | relative viability ([1]; first compound 0.08 µM) | relative viability ([1]; first compound 0.253 µM) | relative viability ([1]; first compound 0.8 µM) | relative viability ([1]; first compound 2.53 µM) | relative viability ([1]; first compound 8 µM) | relative viability (Shikonin + Linsitinib; first compound 0.01 µM) | relative viability (Shikonin + Linsitinib; first compound 0.1 µM) | relative viability (Shikonin + Linsitinib; first compound 0.3162 µM) | relative viability (Shikonin + Linsitinib; first compound 1 µM) | relative viability ([2]; first compound 0.08 µM) | relative viability ([2]; first compound 0.253 µM) | relative viability ([2]; first compound 0.8 µM) | relative viability ([2]; first compound 2.53 µM) | relative viability ([2]; first compound 8 µM) | relative viability ([3]; first compound 0.08 µM) | relative viability ([3]; first compound 0.253 µM) | relative viability ([3]; first compound 0.8 µM) | relative viability ([3]; first compound 2.53 µM) | relative viability ([3]; first compound 8 µM)
1 | NCI-H1975 | 0.745 | 0.82 | 0.68 | 0.649 | 0.538 | 1.11 | 0.985 | 1.01 | 0.793 | 0.895 | 0.867 | 0.879 | 0.806 | 0.839 | 0.303 | 0.296 | 0.292 | 0.3 | 0.286
2 | CAL-12T | 0.735 | 0.775 | 0.702 | 0.698 | 0.723 | 0.754 | 0.815 | 0.715 | 0.767 | 0.626 | 0.548 | 0.63 | 0.563 | 0.529 | 1.21 | 1.16 | 1.1 | 0.983 | 1.05
3 | HCC-44 | 1 | 1.03 | 0.981 | 1 | 0.972 | 0.798 | 0.636 | 0.685 | 0.694 | 0.788 | 0.864 | 0.832 | 0.859 | 0.744 | 0.662 | 0.654 | 0.539 | 0.688 | 0.586
4 | EKVX | 0.818 | 0.83 | 0.67 | 0.803 | 0.752 | 1.04 | 0.962 | 1.29 | 1.09 | 0.989 | 0.83 | 0.822 | 0.917 | 0.804 | 0.44 | 0.325 | 0.413 | 0.464 | 0.404
5 | NCI-H1651 | 0.174 | 0.197 | 0.17 | 0.185 | 0.173 | 0.974 | 1.12 | 0.996 | 1.01 | 0.838 | 0.836 | 0.859 | 0.824 | 0.876 | 0.654 | 0.527 | 0.57 | 0.599 | 0.601
6 | NCI-H1944 | 0.416 | 0.409 | 0.413 | 0.41 | 0.403 | 1.2 | 1.44 | 1.35 | 1.27 | 1.09 | 1.09 | 1.14 | 1.13 | 1.1 | 0.601 | 0.593 | 0.552 | 0.695 | 0.595
7 | NCI-H1703 | 0.52 | 0.446 |  | 0.571 | 0.349 | 0.797 | 1.3 | 0.555 | 0.417 | 0.635 | 0.61 | 0.685 | 0.647 | 0.491 |  |  |  |  | 
8 | Calu-6 | 0.521 | 0.53 | 0.547 | 0.552 | 0.57 | 0.984 | 1.08 | 0.984 | 0.972 | 0.744 | 0.863 | 0.79 | 0.771 | 0.781 |  |  |  |  | 
9 | EBC-1 | 0.766 | 0.746 | 0.76 | 0.85 | 0.657 | 0.984 | 0.857 | 0.727 | 1.02 | 0.207 | 0.199 | 0.18 | 0.178 | 0.171 |  |  |  |  | 
